Columns and labels:
[1] = molecular target: T1, M4 muscarinic receptor (Homo sapiens, UniProt P08173); test: Functional mobilization of intracellular calcium (FLIPR) in M4-CHO cells; format: cell-based; conditions: M4 receptor, calcium mobilization; for Emax: read-out: M4 Efficacy
T1 construct: expressed in transfected cells; host or cells: CHO (M4-CHO)
T1 sequence (P08173 1-479): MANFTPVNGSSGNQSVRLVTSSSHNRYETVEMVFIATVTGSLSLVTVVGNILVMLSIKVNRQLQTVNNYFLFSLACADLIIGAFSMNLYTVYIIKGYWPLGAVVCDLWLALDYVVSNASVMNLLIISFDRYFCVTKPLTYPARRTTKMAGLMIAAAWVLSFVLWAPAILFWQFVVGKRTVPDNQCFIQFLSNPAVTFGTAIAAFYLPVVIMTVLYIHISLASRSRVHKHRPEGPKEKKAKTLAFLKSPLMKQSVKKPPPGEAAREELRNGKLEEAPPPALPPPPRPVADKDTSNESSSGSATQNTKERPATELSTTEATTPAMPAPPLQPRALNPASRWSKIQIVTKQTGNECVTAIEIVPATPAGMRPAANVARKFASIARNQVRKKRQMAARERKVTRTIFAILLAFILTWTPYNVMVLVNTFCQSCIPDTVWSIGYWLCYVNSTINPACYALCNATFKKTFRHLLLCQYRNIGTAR
Protocol: (§1) Functional Mobilization of Intracellular Calcium to Determine Muscarinic Receptor Activity:
(§2) CHO cells expressing muscarinic receptors (M1 to M5) are grown as monolayers in tissue culture flasks at 37° C. in a humidified atmosphere containing 5% CO2 and passaged every 3-5 days. The growth media is Dulbecco's modified eagles medium (DMEM, Gibco Cat# 12430-054), containing 25 mM Hepes and supplemented with Fetal Bovine Serum (Hyclone, cat# SH30071.03), 0.1 mM of MEM non-essential amino acids (GIBCO, Cat# 11140-050), 1 mM MEM Sodium Pyruvate (GIBCO Cat# 11360-070) and 100 units/ml of Penicillin G and 100 μg/ml of Streptomycin (GIBCO Cat# 15140-122). The recombinant muscarinic receptor cell lines are grown under antibiotic pressure with media containing 25 μg/ml zeocin and 500 μg/ml G418 (M1-CHO), 4 μg/ml puromycin, 50 μg/ml zeocin and 2.5 μg/ml blasticidin (M2 and M4-CHO) or 50 μg/ml zeocin and 4 μg/ml puromycin (M3 and M5-CHO).
(§3) Cells are harvested at 80-90% confluence using Versene (GIBCO Cat# 15040-066), collected by centrifugation and seeded 18-24 hrs prior to running the calcium assay at a density of 5,000 cells/well in back-walled, clear-bottomed 384-well plates (BD Biocoat, poly-D-lysine, Cat#356663). The day of the experiment, the cells are washed with a plate washer (Bioteck Instruments, ELX 405) using bath 1 buffer (140-mM NaCl, 4.5-mM KCl, 2-mM CaCl2, 1-mM MgCl2, 10-mM Hepes-Na, 10-mM Glucose, pH 7.4, with NaOH) containing 1 mM Probenecid. Next, the calcium dye Fluo-3 (25 μl/well of Fluo-3 AM at 4 μM, Molecular Probes F-1241, in Bath 1 buffer containing 1 mM Probenecid) is added to the 25 μl of Bath 1 remaining in each well after the plate wash and the dye is loaded at 37° C. in the tissue culture incubator for 60-90 min. The fluorescent dye is removed using the plate washer with Bath 1 containing 1 mM Probenecid, leaving 25 μl/well of this solution after the wash. Alternatively, cells can be loaded with the calcium indicator from Molecular Devices (Calcium 3 Assay Reagents, Cat # R7181) adding 5 μl of a 5× solution dye in Bath 1 containing 1 mM Probenecid (10 ml per dye flask cat# R7182 to generate a solution 20×) to 20 μl of the same buffer. After loading for 60 min, the experiment can be run without having to remove the dye.
(§4) Compounds are prepared at a 2× fold concentration in a 96-well plate (round bottom, Costar Corning cat# 3656), by reconstituting the pre-spotted compounds in bath 1 containing 1 mM probenecid. The final concentration DMSO is 0.5%, and the amount of DMSO is normalized across the assay plate. To determine an agonist action of the compounds on muscarinic receptors, the reconstituted compounds are added (25 μl compound/well) to the cell assay plate (containing 25 μl/well) using the multi-channel robotic system of the FLIPR 3 Instrument (Molecular Devices, Sunnyvale, Calif.). To determine a functional inhibitory action of the compounds on muscarinic receptors, the reconstituted compounds are added (25 μl compound/well) to the assay plate and pre-incubated for 15 min prior to adding 25 μl of Carbachol at 3× the EC80 for each muscarinic subtype. Alternatively, the compounds can be co-applied simultaneously with the agonist. In both assay modes, the fluorescence is recorded for 60 sec (excitation wavelength is […] and emission wavelength 540 nm) using the FLIPR 3 instrument.
(§5) The potency, efficacy and selectivity of the muscarinic compounds were evaluated by screening the compound activity across the whole family (M1 to M5 cells). Compounds were also screened for activity on other proteins such as other GPCRs and ion channels to determine selectivity on M4 receptors.

[2] = molecular target: T2, M1 muscarinic receptor (Homo sapiens, UniProt P11229); test: Functional mobilization of intracellular calcium (FLIPR) in M1-CHO cells; format: cell-based; conditions: M1 receptor, calcium mobilization; for Emax: read-out: M1 Efficacy
T2 construct: expressed in transfected cells; host or cells: CHO (M1-CHO)
T2 sequence (P11229 1-460): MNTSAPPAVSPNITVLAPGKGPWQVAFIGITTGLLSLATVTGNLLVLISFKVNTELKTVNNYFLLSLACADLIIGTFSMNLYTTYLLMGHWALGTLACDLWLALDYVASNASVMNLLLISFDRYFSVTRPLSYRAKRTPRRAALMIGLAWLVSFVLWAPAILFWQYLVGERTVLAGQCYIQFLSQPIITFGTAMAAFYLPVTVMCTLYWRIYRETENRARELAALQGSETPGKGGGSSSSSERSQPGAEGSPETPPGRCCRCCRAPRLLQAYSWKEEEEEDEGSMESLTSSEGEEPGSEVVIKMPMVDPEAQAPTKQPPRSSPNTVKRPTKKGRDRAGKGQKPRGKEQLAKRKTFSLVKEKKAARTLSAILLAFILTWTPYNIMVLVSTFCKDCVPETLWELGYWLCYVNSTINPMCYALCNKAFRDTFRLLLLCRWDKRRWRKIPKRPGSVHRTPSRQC
Protocol: as §1, §2, §3, §4, §5

SMILES	M4 Activity [1]	Emax [1]	M1 Activity [2]	Emax [2]
Clc1ccc2c(c1)C1(CCN([C@H]3C[C@@H]4CC[C@@H]3C4)CC1)CO2 [compound 1]	xx (activity was measured to be between 0.1 μM and 1.0 μM)	> 85%	xx (activity was measured to be between 0.1 μM and 1.0 μM)	65 to 85%
CC(=O)NC1CC2(CCN(C3CCCCC3)CC2)c2ccccc21 (centres unmarked) [compound 2]	x (activity was measured to be greater than 1.0 μM)	< 65%	x (activity was measured to be greater than 1.0 μM)	< 65%
Cc1ccc2c(c1)C1(CCN(CC3CC4C=CC3C4)CC1)CN2 (centres unmarked) [compound 3]	xx (activity was measured to be between 0.1 μM and 1.0 μM)	65 to 85%	xxx (activity was measured to be less than 0.1 μM)	65 to 85%
CC(=O)N[C@H]1CC2(CCN(C3C4CC5CC(C4)CC3C5)CC2)c2ccccc21 (some centres unmarked) [compound 4]	x (activity was measured to be greater than 1.0 μM)	< 65%	xxx (activity was measured to be less than 0.1 μM)	< 65%
Clc1ccc2c(c1)C1(CCN(C3CCCCC3)CC1)CO2 [compound 5]	xxx (activity was measured to be less than 0.1 μM)	> 85%	xxx (activity was measured to be less than 0.1 μM)	65 to 85%
CCOC(=O)N1CCC(N2CCC3(CC2)CN(C(C)=O)c2ccc(-c4cccc(C)c4)cc23)CC1 [compound 6]	xx (activity was measured to be between 0.1 μM and 1.0 μM)	65 to 85%	xxx (activity was measured to be less than 0.1 μM)	65 to 85%
O=C1Nc2ccccc2C12CCN(CC1CC3C=CC1C3)CC2 (centres unmarked) [compound 7]	xx (activity was measured to be between 0.1 μM and 1.0 μM)	> 85%	xxx (activity was measured to be less than 0.1 μM)	65 to 85%
CC(=O)NC1CC2(CCN(C3CC4CCC(C4)C3)CC2)c2ccccc21 (centres unmarked) [compound 8]	xx (activity was measured to be between 0.1 μM and 1.0 μM)	65 to 85%	xx (activity was measured to be between 0.1 μM and 1.0 μM)	< 65%
CCOC(=O)N1C2CCC1CC(N1CCC3(CC1)CN(C(C)=O)c1ccc(C)cc13)C2 (centres unmarked) [compound 9]	x (activity was measured to be greater than 1.0 μM)	65 to 85%	xxx (activity was measured to be less than 0.1 μM)	65 to 85%
CCOC(=O)N1CCC(N2CCC3(CC2)CN(C(C)=O)c2ccc(-c4ccc(NC(C)=O)cc4)cc23)CC1 [compound 10]	xx (activity was measured to be between 0.1 μM and 1.0 μM)	65 to 85%	xx (activity was measured to be between 0.1 μM and 1.0 μM)	65 to 85%
C=Cc1ccc2c(c1)C1(CCN(C3CCN(C(=O)OCC)CC3)CC1)CN2C(C)=O [compound 11]	x (activity was measured to be greater than 1.0 μM)	< 65%	x (activity was measured to be greater than 1.0 μM)	< 65%
CCC(=O)CCN1CC2(CCN(C[C@@H]3C[C@H]4C=C[C@H]3C4)CC2)c2cc(F)ccc21 [compound 12]	xx (activity was measured to be between 0.1 μM and 1.0 μM)	< 65%	xxx (activity was measured to be less than 0.1 μM)	< 65%
Fc1ccc2c(c1)C1(CCN(CC3CCC4CCC3C4)CC1)CN2 (centres unmarked) [compound 13]	x (activity was measured to be greater than 1.0 μM)	< 65%	xx (activity was measured to be between 0.1 μM and 1.0 μM)	65 to 85%
CC(=O)N1CC2(CCN(CC3CCN(C(=O)O[C@@H]4CCOC4)CC3)CC2)c2cc(F)ccc21 [compound 14]	xxx (activity was measured to be less than 0.1 μM)	> 85%	xxx (activity was measured to be less than 0.1 μM)	65 to 85%
CCCC1CCC(N2CCC3(CC2)C[C@H](NC(C)=O)c2ccccc23)CC1 (some centres unmarked) [compound 15]	xx (activity was measured to be between 0.1 μM and 1.0 μM)	> 85%	xxx (activity was measured to be less than 0.1 μM)	65 to 85%
CS(=O)(=O)N1CC2(CCN(C3CC4CCC(C3)N4C(=O)O[C@@H]3CCOC3)CC2)c2cc(F)ccc21 (some centres unmarked) [compound 16]	xxx (activity was measured to be less than 0.1 μM)	65 to 85%	xxx (activity was measured to be less than 0.1 μM)	65 to 85%
CCOC(=O)N1CCC(N2CCC3(CC2)CN(C(=O)C2CCCC2)c2ccc(F)cc23)CC1 [compound 17]	xx (activity was measured to be between 0.1 μM and 1.0 μM)	65 to 85%	xx (activity was measured to be between 0.1 μM and 1.0 μM)	< 65%
c1ccc2c(c1)CCC21CCN(CC2CCOCC2)CC1 [compound 18]	xx (activity was measured to be between 0.1 μM and 1.0 μM)	> 85%	xxx (activity was measured to be less than 0.1 μM)	< 65%
CCOC(=O)N1CCC(N2CCC3(CC2)CNc2ccc(Cl)cc23)CC1 [compound 19]	xx (activity was measured to be between 0.1 μM and 1.0 μM)	65 to 85%	xxx (activity was measured to be less than 0.1 μM)	65 to 85%
CC1(C)C(=O)c2ccccc2C12CCN(C[C@H]1C[C@@H]3C=C[C@@H]1C3)CC2 [compound 20]	xx (activity was measured to be between 0.1 μM and 1.0 μM)	< 65%	x (activity was measured to be greater than 1.0 μM)	< 65%
